Results on 11 molecules are retold here after patent publication US12668585B2, “Substituted pyrimidinyl-pyrazoles as CDK2 inhibitors” (BLUEPRINT MEDICINES CORPORATION, priority 2021, dated 2026).

The target in one test is T1, CDK1/Cyclin B1, GST-tag (Homo sapiens, UniProt P06493).
T1 construct: GST; purchased BPS 40454
The test can be described thus: Biochemical CDK inhibition assay (Caliper mobility shift), CDK1/Cyclin B1. The procedure: (§1) Inhibitory effects of the compounds of the disclosure were measured in biochemical assays that measure the enzymatic phosphorylation activity of CDK enzyme in complex of Cyclin proteins phosphorylates 7.5 micromolar fluorescently labelled peptide substrate, 5-FAM-QSPKKG-CONH2, (FL-Peptide 18, Perkin Elmer, 760362) in the presence of adenosine-5′-triphosphate (ATP) and varying concentrations of the test compound in 100 mM 2-[4-(2-hydroxyethyl)piperazin-1-yl] ethanesulfonic acid (HEPES), pH 7.5, 10 mM MgCl2, 0.015% Brij-35, 1 mM dithiothreitol (DTT), 1.0% dimehylsulfoxide (DMSO). […] Reactions proceeded until between 10% to 20% total peptides were phosphorylated at room temperature (25° C.) and were terminated with 35 mM 2,2′,2″,2′″-(ethane-1,2-diyldinitrilo)tetraacetic acid (EDTA). Product was detected using the Caliper mobility shift detection method where the phosphorylated peptide (product) and substrate were electrophoretically separated and measured. Percent activity was plotted against log concentration of compound and points to generate an apparent IC50. The following CDK enzymes in complex with different cyclin proteins were used in these assays: • CDK1/Cyclin B1, GST-tag (BPS, 40454), 1.5 nM used in the assay • CDK2/Cyclin E (Eurofins, 14-475), 1.25 nM used in the assays
(§2) For inhibitory activity against CDK2/Cyclin E mutant, the following designations are used: ≤10 nM=A; >10-20 nM=B; >20-30 nM=C; >30-100 nM=D and >100=E. For inhibition CDK1/Cyclin B1, GST-tag: ≥500 nM=A; <100-500 nM=B; <100 nM=C.

The next test has as its target T2, CDK2/Cyclin E (Homo sapiens, UniProt P24941).
T2 construct: purchased Eurofins 14-475
The test is described as follows: Biochemical CDK inhibition assay (Caliper mobility shift), CDK2/Cyclin E. The following applies: read-out: CDK2/cyclin E1 IC50. The procedure:
as §1, §2

The structures appear in SMILES notation.

T1 sequence (P06493 whole entry): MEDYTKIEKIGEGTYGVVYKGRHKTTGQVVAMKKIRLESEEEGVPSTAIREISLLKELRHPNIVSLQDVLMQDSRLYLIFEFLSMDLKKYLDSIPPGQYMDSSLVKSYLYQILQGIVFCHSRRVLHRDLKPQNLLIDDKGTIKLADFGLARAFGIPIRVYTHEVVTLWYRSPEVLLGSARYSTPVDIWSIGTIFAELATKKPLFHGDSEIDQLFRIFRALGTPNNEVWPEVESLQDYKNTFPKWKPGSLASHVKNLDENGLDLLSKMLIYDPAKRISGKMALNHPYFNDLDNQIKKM
T1 sequence (P14635 whole entry partner): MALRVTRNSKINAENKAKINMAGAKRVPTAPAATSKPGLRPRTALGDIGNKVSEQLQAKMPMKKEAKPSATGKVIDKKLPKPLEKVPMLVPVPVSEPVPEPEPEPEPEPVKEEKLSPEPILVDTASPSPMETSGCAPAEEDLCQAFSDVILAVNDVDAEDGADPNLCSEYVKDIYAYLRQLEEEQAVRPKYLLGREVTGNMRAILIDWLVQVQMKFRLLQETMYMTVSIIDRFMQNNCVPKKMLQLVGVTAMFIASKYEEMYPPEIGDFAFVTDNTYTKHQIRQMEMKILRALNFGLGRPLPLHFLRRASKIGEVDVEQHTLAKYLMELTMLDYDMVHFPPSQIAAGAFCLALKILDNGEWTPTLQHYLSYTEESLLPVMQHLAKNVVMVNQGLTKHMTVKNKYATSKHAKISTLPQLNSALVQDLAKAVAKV

Take `CC(C)(O)Cn1cc(-c2nc(Nc3ccc(S(N)(=O)=O)cc3F)ncc2F)cn1` [Example 30, 3-fluoro-4-((5-fluoro-4-(1-(2-hydroxy-2-methylpropyl)-1H-pyrazol-4-yl)pyrimidin-2-yl)amino)benzenesulfonamide]: the IC50 on CDK1/Cyclin B1, GST-tag was 100 to 500 nM; on CDK2/Cyclin E, at most 10 nM.

Take `Cc1cc(S(N)(=O)=O)ccc1Nc1ncc(F)c(-c2cnn(CC(C)(C)O)c2)n1` [Example 31, 4-((5-fluoro-4-(1-(2-hydroxy-2-methylpropyl)-1H-pyrazol-4-yl)pyrimidin-2-yl)amino)-3-methylbenzenesulfonamide]: the IC50 was 100 to 500 nM at CDK1/Cyclin B1, GST-tag and at most 10 nM at CDK2/Cyclin E.

As for `NS(=O)(=O)c1ccc(Nc2ncc(C(F)(F)F)c(-c3cnn(CC(O)C4CC4)c3)n2)c(F)c1` (stereo not shown) [Example 32, 4-((4-(1-(2-cyclopropyl-2-hydroxyethyl)-1H-pyrazol-4-yl)-5-(trifluoromethyl)pyrimidin-2-yl)amino)-3-fluorobenzenesulfonamide], the IC50 on CDK1/Cyclin B1, GST-tag is at least 500 nM; on CDK2/Cyclin E it was 10 to 20 nM.

As to `N#Cc1cnc(Nc2ccc(S(N)(=O)=O)cc2)nc1-c1cnn(CCO)c1` [Example 34, 4-((5-cyano-4-(1-(2-hydroxyethyl)-1H-pyrazol-4-yl)pyrimidin-2-yl)amino)benzenesulfonamide], the IC50 on CDK1/Cyclin B1, GST-tag lay in the range of 100 to 500 nM; at CDK2/Cyclin E, 10 to 20 nM.

Turning to `C[C@H](O)Cn1cc(-c2nc(Nc3ccc(S(N)(=O)=O)cc3F)ncc2C(F)(F)F)cn1` [Example 35, (S)-3-fluoro-4-((4-(1-(2-hydroxypropyl)-1H-pyrazol-4-yl)-5-(trifluoromethyl)pyrimidin-2-yl)amino)benzenesulfonamide], the IC50 is at least 500 nM on CDK1/Cyclin B1, GST-tag and 10 to 20 nM on CDK2/Cyclin E.

`Cc1cnc(Nc2ccc(S(N)(=O)=O)cc2F)nc1-c1cnn(CC(C)(C)O)c1` [Example 36, 3-fluoro-4-((4-(1-(2-hydroxy-2-methylpropyl)-1H-pyrazol-4-yl)-5-methylpyrimidin-2-yl)amino)benzenesulfonamide]: the IC50 on CDK1/Cyclin B1, GST-tag is at least 500 nM; on CDK2/Cyclin E it was 10 to 20 nM.

`Cc1cc(Nc2ncc(C(F)(F)F)c(-c3cnn(CC(C)(C)O)c3)n2)cc(C)c1S(N)(=O)=O` [Example 37, 4-((4-(1-(2-hydroxy-2-methylpropyl)-1H-pyrazol-4-yl)-5-(trifluoromethyl)pyrimidin-2-yl)amino)-2,6-dimethylbenzenesulfonamide]: the IC50 on CDK1/Cyclin B1, GST-tag was 100 to 500 nM; on CDK2/Cyclin E it was 10 to 20 nM.

As to `CC(C)(O)Cn1cc(-c2nc(Nc3ccc(S(N)(=O)=O)c(Cl)c3F)ncc2C(F)(F)F)cn1` [Example 38, 2-chloro-3-fluoro-4-((4-(1-(2-hydroxy-2-methylpropyl)-1H-pyrazol-4-yl)-5-(trifluoromethyl)pyrimidin-2-yl)amino)benzenesulfonamide], the IC50 at CDK1/Cyclin B1, GST-tag was at least 500 nM; on CDK2/Cyclin E, 10 to 20 nM.

For `N#Cc1cnc(Nc2ccc(S(N)(=O)=O)cc2)nc1-c1cnn(C2COC2)c1` [Example 39, 4-((5-cyano-4-(1-(oxetan-3-yl)-1H-pyrazol-4-yl)pyrimidin-2-yl)amino)benzenesulfonamide], the IC50 on CDK1/Cyclin B1, GST-tag is at least 500 nM; on CDK2/Cyclin E it was 10 to 20 nM.

As for `COc1c(S(N)(=O)=O)ccc(Nc2ncc(C(F)(F)F)c(-c3cnn(CC(C)(C)O)c3)n2)c1F` [Example 40, 3-fluoro-4-((4-(1-(2-hydroxy-2-methylpropyl)-1H-pyrazol-4-yl)-5-(trifluoromethyl)pyrimidin-2-yl)amino)-2-methoxybenzenesulfonamide], the IC50 was at least 500 nM on CDK1/Cyclin B1, GST-tag and 10 to 20 nM on CDK2/Cyclin E.

Take `NS(=O)(=O)c1ccc(Nc2ncc(C(F)(F)F)c(-c3cnn(CC4(O)COC4)c3)n2)c(F)c1` [Example 41, 3-fluoro-4-((4-(1-((3-hydroxyoxetan-3-yl)methyl)-1H-pyrazol-4-yl)-5-(trifluoromethyl)pyrimidin-2-yl)amino)benzenesulfonamide]: the IC50 at CDK1/Cyclin B1, GST-tag was at least 500 nM; on CDK2/Cyclin E it was 10 to 20 nM.
